Results taken from publication PMC3871175 (Nature Communications, 2012).

Target: ABCA4 (Bos taurus, UniProt F1MWM0)
Format: biochemical

Chain of ABCA4 (F1MWM0 whole entry): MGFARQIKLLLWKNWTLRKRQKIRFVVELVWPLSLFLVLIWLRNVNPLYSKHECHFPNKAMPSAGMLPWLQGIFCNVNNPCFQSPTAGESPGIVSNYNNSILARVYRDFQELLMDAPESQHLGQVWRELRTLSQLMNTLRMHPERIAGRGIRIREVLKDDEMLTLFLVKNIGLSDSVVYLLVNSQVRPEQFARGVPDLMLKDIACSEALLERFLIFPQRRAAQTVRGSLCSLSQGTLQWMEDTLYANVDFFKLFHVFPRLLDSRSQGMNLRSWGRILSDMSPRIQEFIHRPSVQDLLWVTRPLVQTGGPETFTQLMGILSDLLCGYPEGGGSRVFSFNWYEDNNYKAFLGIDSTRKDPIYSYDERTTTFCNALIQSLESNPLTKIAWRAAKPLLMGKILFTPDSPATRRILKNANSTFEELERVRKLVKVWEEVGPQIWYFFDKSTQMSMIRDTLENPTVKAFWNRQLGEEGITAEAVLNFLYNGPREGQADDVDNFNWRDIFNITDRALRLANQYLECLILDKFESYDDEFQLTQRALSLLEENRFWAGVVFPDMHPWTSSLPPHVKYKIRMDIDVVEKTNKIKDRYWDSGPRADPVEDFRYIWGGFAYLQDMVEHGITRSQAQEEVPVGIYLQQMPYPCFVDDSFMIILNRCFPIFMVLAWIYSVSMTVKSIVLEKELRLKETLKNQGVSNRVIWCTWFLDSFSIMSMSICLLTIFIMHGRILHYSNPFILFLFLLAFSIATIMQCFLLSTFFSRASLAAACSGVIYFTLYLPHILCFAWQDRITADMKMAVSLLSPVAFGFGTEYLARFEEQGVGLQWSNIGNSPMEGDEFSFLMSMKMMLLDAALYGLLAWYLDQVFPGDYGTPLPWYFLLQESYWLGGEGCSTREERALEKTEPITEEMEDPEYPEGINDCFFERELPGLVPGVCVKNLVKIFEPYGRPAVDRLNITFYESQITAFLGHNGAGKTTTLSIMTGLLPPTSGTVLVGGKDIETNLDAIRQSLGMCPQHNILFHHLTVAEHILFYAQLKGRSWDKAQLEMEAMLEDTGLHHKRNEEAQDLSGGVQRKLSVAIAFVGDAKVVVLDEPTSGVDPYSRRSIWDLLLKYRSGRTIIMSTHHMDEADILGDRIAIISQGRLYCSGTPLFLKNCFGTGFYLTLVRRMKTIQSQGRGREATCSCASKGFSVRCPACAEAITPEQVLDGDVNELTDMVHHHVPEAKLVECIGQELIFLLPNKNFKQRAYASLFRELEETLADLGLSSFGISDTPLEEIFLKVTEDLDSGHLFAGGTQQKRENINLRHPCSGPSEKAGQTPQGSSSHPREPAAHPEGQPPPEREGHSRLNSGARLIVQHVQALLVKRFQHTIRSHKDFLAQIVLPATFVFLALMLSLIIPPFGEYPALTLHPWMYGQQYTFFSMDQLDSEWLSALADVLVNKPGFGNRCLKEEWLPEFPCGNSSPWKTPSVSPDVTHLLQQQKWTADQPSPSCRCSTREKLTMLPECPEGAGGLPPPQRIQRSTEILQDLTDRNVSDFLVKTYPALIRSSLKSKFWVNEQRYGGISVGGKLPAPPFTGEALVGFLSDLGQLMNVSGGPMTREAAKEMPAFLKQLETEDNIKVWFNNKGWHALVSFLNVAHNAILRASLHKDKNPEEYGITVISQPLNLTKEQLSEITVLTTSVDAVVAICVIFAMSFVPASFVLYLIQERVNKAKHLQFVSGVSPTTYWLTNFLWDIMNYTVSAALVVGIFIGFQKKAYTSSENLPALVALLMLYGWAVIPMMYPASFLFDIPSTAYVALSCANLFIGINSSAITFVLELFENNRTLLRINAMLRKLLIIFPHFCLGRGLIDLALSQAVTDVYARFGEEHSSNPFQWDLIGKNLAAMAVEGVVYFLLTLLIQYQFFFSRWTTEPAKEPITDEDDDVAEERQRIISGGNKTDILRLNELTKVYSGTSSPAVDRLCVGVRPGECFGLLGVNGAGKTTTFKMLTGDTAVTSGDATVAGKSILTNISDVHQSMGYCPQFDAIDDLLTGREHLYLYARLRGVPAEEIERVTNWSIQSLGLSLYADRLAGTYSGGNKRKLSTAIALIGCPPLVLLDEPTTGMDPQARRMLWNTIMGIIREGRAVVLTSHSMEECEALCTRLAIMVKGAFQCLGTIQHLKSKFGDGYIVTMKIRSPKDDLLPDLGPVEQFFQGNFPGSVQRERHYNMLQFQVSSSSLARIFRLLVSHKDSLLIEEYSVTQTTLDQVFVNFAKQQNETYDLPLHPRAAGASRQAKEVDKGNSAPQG

IC50: 9 µM
Substance: N-retinyl-PE
